From ChEMBL document CHEMBL6096669, “Design and synthesis of novel derivatives of bisepoxylignans as potent anti-inflammatory agents involves the modulation of the M1/M2 microglia phenotype via TLR4/NF-κB signaling pathway” (Eur J Med Chem, 2025)
Active and inactive are the calls of the source. The rule behind the calls is not given here.

Key:
[1] = Cytotoxicity against mouse BV-2 cells assessed as cell viability at 10 uM measured after 24 hrs by MTT assay relative to control; type: toxicity, cell-based; conditions: read-out: Activity
[2] = tested on: BV-2; assay: Anti-neuroinflammatory activity against LPS-induced mouse BV-2 cells assessed as smaller cell bodies and morphology at 20 uM by bright field microscopy relative to LPS-induced control; type: functional, cell-based
[3] = tested on: BV-2; assay: Inhibition of LPS-induced NO production in mouse BV-2 cells measured after 24 hrs followed by induced with LPS for another 24 hrs by ELISA relative to control; type: functional, cell-based
[4] = tested on: BV-2; assay: Anti-inflammatory activity against LPS-induced mouse BV-2 cells assessed as decrease in LPS-induced iNOS mRNA expression at 10 to 20 uM incubated for 4 hrs followed by LPS induced for 12 hrs by RT-PCR analysis relative to control; type: functional, cell-based; conditions: dose 10-20 µM, time 16.0 hrs
[5] = tested on: BV-2; assay: Anti-inflammatory activity against LPS-induced mouse BV-2 cells assessed as decrease in LPS-induced Cyclooxygenase-2 mRNA expression at 5 to 20 uM incubated for 4 hrs followed by LPS induced for 12 hrs by RT-PCR analysis relative to control; type: functional, cell-based; conditions: dose 5-20 µM, time 16.0 hrs
[6] = tested on: BV-2; assay: Anti-inflammatory activity against LPS-induced mouse BV-2 cells assessed as decrease in LPS-induced TNF-alpha mRNA expression at 5 uM incubated for 4 hrs followed by LPS induced for 12 hrs by RT-PCR analysis relative to control; type: functional, cell-based; conditions: time 16.0 hrs
[7] = tested on: BV-2; assay: Anti-inflammatory activity against LPS-induced mouse BV-2 cells assessed as decrease in LPS-induced TNF-alpha mRNA expression at 10 to 20 uM incubated for 4 hrs followed by LPS induced for 12 hrs by RT-PCR analysis relative to control; type: functional, cell-based; conditions: dose 10-20 µM, time 16.0 hrs
[8] = tested on: BV-2; assay: Anti-inflammatory activity against LPS-induced mouse BV-2 cells assessed as decrease in LPS-induced IL-1beta mRNA expression at 5 uM incubated for 4 hrs followed by LPS induced for 12 hrs by RT-PCR analysis relative to control; type: functional, cell-based; conditions: time 16.0 hrs
[9] = tested on: BV-2; assay: Anti-inflammatory activity against LPS-induced mouse BV-2 cells assessed as decrease in LPS-induced IL-6 mRNA expression at 5 uM incubated for 4 hrs followed by LPS induced for 12 hrs by RT-PCR analysis relative to control; type: functional, cell-based; conditions: time 16.0 hrs
[10] = tested on: BV-2; assay: Anti-inflammatory activity against LPS-induced mouse BV-2 cells assessed as decrease in LPS-induced IL-6 mRNA expression at 10 to 20 uM incubated for 4 hrs followed by LPS induced for 12 hrs by RT-PCR analysis relative to control; type: functional, cell-based; conditions: dose 10-20 µM, time 16.0 hrs
[11] = tested on: BV-2; assay: Anti-inflammatory activity against LPS-induced mouse BV-2 cells assessed as decrease in LPS-induced Cyclooxygenase-2 mRNA expression at 20 uM incubated for 4 hrs followed by LPS induced for 12 hrs by RT-PCR analysis relative to control; type: functional, cell-based; conditions: time 16.0 hrs
[12] = tested on: BV-2; assay: Anti-inflammatory activity against LPS-induced mouse BV-2 cells assessed as decrease in LPS-induced TNFalpha production incubated for 4 hrs followed by LPS induced for 24 hrs by Western blotting analysis; type: functional, cell-based; conditions: dose 5-20 µM, time 28.0 hrs
[13] = tested on: BV-2; assay: Anti-inflammatory activity against LPS-induced mouse BV-2 cells assessed as decrease in LPS-induced iNOS production incubated for 4 hrs followed by LPS induced for 24 hrs by Western blotting analysis; type: functional, cell-based; conditions: dose 5-20 µM, time 28.0 hrs
[14] = tested on: BV-2; assay: Anti-inflammatory activity against LPS-induced mouse BV-2 cells assessed as decrease in LPS-induced TLR4 production incubated for 4 hrs followed by LPS induced for 24 hrs by […]; type: functional, cell-based; conditions: dose 5-20 µM, time 28.0 hrs
[15] = Acute toxicity in C57BL/6 mouse assessed as morphological changes in kidney by measuring signs of inflammation at 500 mg/kg, po single dose measured on day 8 by H and E staining based assay; type: organism-based; conditions: in vivo, 192 h, time 8 day
[16] = Acute toxicity in C57BL/6 mouse assessed as change in BUN level at 500 mg/kg, po single dose measured on day 8; type: organism-based; conditions: in vivo
[17] = Acute toxicity in C57BL/6 mouse assessed as change in ALT level at 500 mg/kg, po single dose measured on day 8 by ALT/GPT test kit; type: organism-based; conditions: in vivo
[18] = Biodistribution in C57BL/6 mouse lung at 20 mg/kg, IG measured after 15 mins; type: ADME, organism-based; conditions: in vivo, po, 0.25 h
[19] = Half life in rat at 20 mg/kg, po single dose; type: ADME, organism-based; conditions: in vivo
[20] = Cmax in rat at 20 mg/kg, po single dose; type: ADME, organism-based; conditions: in vivo
[21] = Tmax in rat at 20 mg/kg, po single dose; type: ADME, organism-based; conditions: in vivo
[22] = AUMClast in rat at 20 mg/kg, po single dose; type: ADME, organism-based; conditions: in vivo
[23] = Ratio of AUC in brain to serum in rat at 20 mg/kg, po single dose; type: ADME, organism-based
[24] = tested on: Mus musculus; assay: Anti-neuroinflammatory activity against LPS-induced male C57BL/6 mouse assessed as suppression of LPS-induced IL-6 mRNA level at 20 mg/kg, po administered for 3 days followed by induced with LPS by tail vein injection by RT-PCR analysis; type: functional, organism-based; conditions: time 3.0 day
[25] = tested on: Mus musculus; assay: Anti-neuroinflammatory activity against LPS-induced male C57BL/6 mouse assessed as suppression of LPS-induced TLR4 protein level at 20 mg/kg, po administered for 3 days followed by induced with LPS by tail vein injection by Western blot analysis; type: functional, organism-based; conditions: time 3.0 day
[26] = tested on: Mus musculus; assay: Anti-neuroinflammatory activity against LPS-induced male C57BL/6 mouse assessed as suppression of LPS-induced p-IkappaB-alpha protein level at 20 mg/kg, po administered for 3 days followed by induced with LPS by tail vein injection by Western blot analysis; type: functional, organism-based; conditions: time 3.0 day
[27] = tested on: Mus musculus; assay: Anti-neuroinflammatory activity against LPS-induced male C57BL/6 mouse assessed as suppression of LPS-induced p-NF-kappaB protein level at 20 mg/kg, po administered for 3 days followed by induced with LPS by tail vein injection by Western blot analysis; type: functional, organism-based; conditions: time 3.0 day
[28] = tested on: Mus musculus; assay: Anti-neuroinflammatory activity against LPS-induced male C57BL/6 mouse assessed as suppression of LPS-induced pathological changes in spleen at 20 mg/kg, po administered for 3 days followed by induced with LPS by tail vein injection by hematoxylin-eosin staining based assay; type: functional, organism-based; conditions: time 3.0 day
[29] = tested on: Mus musculus; assay: Anti-neuroinflammatory activity against LPS-induced male C57BL/6 mouse assessed as suppression of LPS-induced pathological changes in kidney at 20 mg/kg, po administered for 3 days followed by induced with LPS by tail vein injection by hematoxylin-eosin staining based assay; type: functional, organism-based; conditions: time 3.0 day
[30] = tested on: Mus musculus; assay: Anti-neuroinflammatory activity against LPS-induced male C57BL/6 mouse assessed as suppression of LPS-induced microglial activation by measuring decrease in […] fluorescence intensity at 20 mg/kg, po administered for 3 days followed by induced with LPS by tail vein injection by immunofluorescence staining based assay; type: functional, organism-based; conditions: time 3.0 day
[31] = tested on: BV-2; assay: Anti-inflammatory activity against LPS-induced mouse BV-2 cells assessed as decrease in LPS-induced Cyclooxygenase-2 production at 5 uM incubated for 4 hrs followed by LPS induced for 24 hrs by Western blotting analysis; type: functional, cell-based
[32] = tested on: BV-2; assay: Anti-inflammatory activity against LPS-induced mouse BV-2 cells assessed as decrease in LPS-induced TNFalpha production at 5 to 10 uM incubated for 4 hrs followed by LPS induced for 24 hrs by Western blotting analysis; type: functional, cell-based; conditions: dose 5-10 µM

Question: For O=c1[nH]c2ccc(Nc3ncnc4c3ccn4Cc3ccc(F)cc3)cc2[nH]1, which viability at 24 h, 10 µM [1] is on record?
Answer: Its viability at 24 h, 10 µM is 95.3%.

Question: And the Activity [2]?
Answer: Its Activity is “Active”.

Question: What about the inhibition [3] of the same molecule?
Answer: Its inhibition is “Active”.

Question: What about the Activity [4] of the same molecule?
Answer: The Activity was “Active”.

Question: What about the Activity [5] of the same molecule?
Answer: The Activity was “Active”.

Question: What about the Activity [6] of the same molecule?
Answer: Its Activity is “Not active; No Significant Effect Observed Vs Lps”.

Question: What about the Activity [7] of the same molecule?
Answer: The Activity was “Active”.

Question: And the Activity [8]?
Answer: Its Activity is “Not active; No Significant Effect Observed Vs Lps”.

Question: What about the Activity [9] of the same molecule?
Answer: Its Activity is “Not active; No Significant Effect Observed Vs Lps”.

Question: And the Activity [10]?
Answer: Its Activity is “Active”.

Question: And the Activity [11]?
Answer: The Activity was “Active”.

Question: And the Activity [12]?
Answer: Its Activity is “Dose-dependent-effect”.

Question: And the Activity [13]?
Answer: The Activity was “Dose-dependent-effect”.

Question: And the Activity [14]?
Answer: The Activity was “Dose-dependent-effect”.

Question: And the Activity [15]?
Answer: The Activity was “Non-toxic”.

Question: And the Activity [16]?
Answer: The Activity was “Non-toxic”.

Question: And the Activity [17]?
Answer: The Activity was “Non-toxic”.

Question: What about the Drug uptake [18] of the same molecule?
Answer: Its Drug uptake is “Active”.

Question: What about the half-life [19] of the same molecule?
Answer: Its half-life is 5.91 h.

Question: And the Cmax [20]?
Answer: Its Cmax is 7490 ng/mL.

Question: And the Tmax [21]?
Answer: Its Tmax is 1 h.

Question: And the AUMClast [22]?
Answer: Its AUMClast is 269972.2 hr.hr.ng/ml.

Question: And the Ratio [23]?
Answer: Its Ratio is 1.9%.

Question: And the Activity [24]?
Answer: Its Activity is “Active”.

Question: And the Activity [25]?
Answer: The Activity was “Active”.

Question: What about the Activity [26] of the same molecule?
Answer: Its Activity is “Active”.

Question: And the Activity [27]?
Answer: The Activity was “Active”.

Question: What about the Activity [28] of the same molecule?
Answer: The Activity was “Active; Decreased Lps-Induced Visceral Injury (Cell Morphology, Hemorrhage, And Neutrophil Infiltration) And Maintaining Normal Cell Shape And Arrangement And Enhancing Infiltration Of Inflammatory Cells”.

Question: And the Activity [29]?
Answer: Its Activity is “Active; Decreased Lps-Induced Visceral Injury (Cell Morphology, Hemorrhage, And Neutrophil Infiltration) And Maintaining Normal Cell Shape And Arrangement And Enhancing Infiltration Of Inflammatory Cells”.

Question: And the Activity [30]?
Answer: The Activity was “Active”.

Question: What about the Activity [31] of the same molecule?
Answer: Its Activity is “Not active; No Significant Effect Observed Vs Lps”.

Question: What about the Activity [32] of the same molecule?
Answer: The Activity was “Not active; No Significant Effect Observed Vs Lps”.
